Measurements: ChEMBL document CHEMBL5518206, “Hit-to-Lead Identification and Validation of a Triaromatic Pleuromutilin Antibiotic Candidate” (J Med Chem, 2024)
≈ marks a conversion by molar mass, not a printed value. Calls of active or inactive are those of the source. No cut-off for these calls is given here.

Columns and labels:
[1] = Plasma Concentration in pig at 3 mg/kg, iv measured upto 240 mins by LC-MS/MS analysis; assay type: ADME, organism-based, Sus scrofa
[2] = Half life in NMRI female mouse at 20 mg/kg, sc by HPLC analysis; assay type: ADME, organism-based; settings: in vivo
[3] = system: Enterococcus faecium; experiment: Antibacterial activity against Linezolid/Ampicillin/ciprofloxacin/Vancomycin-resistant Enterococcus faecium assessed as inhibition of visible growth incubated for 20 to 24 hrs by microbroth serial dilution assay; assay type: functional; settings: time 20-24 hrs, read-out: MIC100
[4] = system: Staphylococcus aureus; experiment: Antibacterial activity against multi drug-resistant Staphylococcus aureus USA300 FPR3757 assessed as reduction in bacterial growth at 1 times of MIC concentration measured at first 12 hrs by time-kill assay; assay type: functional
[5] = system: Streptococcus pneumoniae; experiment: Antibacterial activity against Streptococcus pneumoniae assessed as inhibition of visible growth incubated for 20 to 24 hrs by microbroth serial dilution assay; assay type: functional; settings: time 20-24 hrs, read-out: MIC100
[6] = Inhibition of P-gp efflux in MDCKII-MDR1 cells using calcein-AM as substrate assessed as intracellular calcein fluorescence preincubated for 15 mins followed by substrate addition and measured by fluorescence based assay; assay type: cell-based; settings: Canis lupus familiaris
[7] = system: Enterococcus faecium; experiment: Antibacterial activity against Vancomycin-resistant Enterococcus faecium assessed as inhibition of visible growth incubated for 20 to 24 hrs by microbroth serial dilution assay; assay type: functional; settings: time 20-24 hrs, read-out: MIC100
[8] = Half life in pig plasma at 3 mg/kg, iv measured upto 240 mins by LC-MS/MS analysis; assay type: ADME, organism-based, Sus scrofa
[9] = system: Staphylococcus aureus; experiment: Antibacterial activity against multi drug-resistant Staphylococcus aureus USA300 FPR3757 assessed as reduction in bacterial growth at 4 times of MIC concentration measured after 6 hrs by time-kill assay; assay type: functional
[10] = Apparent permeability from apical to basolateral side in human Caco-2 cells at 280 uM measured upto 120 mins by LC-MS analysis; assay type: ADME, cell-based
[11] = system: Staphylococcus aureus; experiment: Antibacterial activity against multi drug-resistant Staphylococcus aureus USA300 FPR3757 assessed as reduction in bacterial growth of original inoculum at 4 times of MIC concentration measured after 24 hrs by time-kill assay; assay type: functional
[12] = system: Enterococcus faecalis; experiment: Antibacterial activity against Enterococcus faecalis assessed as inhibition of visible growth incubated for 20 to 24 hrs by microbroth serial dilution assay; assay type: functional; settings: time 20-24 hrs, read-out: MIC100
[13] = in vitro; settings: human, liver microsomes
[14] = molecular target: hERG (KCNH2) (Homo sapiens, UniProt Q12809); experiment: Inhibition of hERG expressed in HEK293 cells assessed as tail current at 60 uM measured after 8 mins by automated whole-cell Qpatch Clamp assay relative to control; settings: HEK293 cells that express hERG
[15] = Tmax in NMRI female mouse at 30 mg/kg, po by HPLC analysis; assay type: ADME, organism-based; settings: in vivo
[16] = molecular target: Cytochrome P450 3A4 (Homo sapiens, UniProt P08684); experiment: Inhibition of human CYP3A4 incubated for 60 mins by red fluorescent-probe-based microsomal assay; assay type: ADME
[17] = system: Staphylococcus aureus; experiment: Antibacterial activity against multi drug-resistant Staphylococcus aureus USA300 FPR3757 assessed as reduction in bacterial growth of original inoculum at 4 times of MIC concentration measured after 24 hrs by time-kill assay relative to control; assay type: functional
[18] = in vitro; settings: mouse, liver microsomes
[19] = Apparent permeability from basolateral to apical side in human Caco-2 cells at 280 uM measured upto 120 mins by LC-MS analysis; assay type: ADME, cell-based
[20] = Volume of distribution in pig plasma at 3 mg/kg, iv measured upto 240 mins by LC-MS/MS analysis; assay type: ADME, organism-based, Sus scrofa
[21] = Cmax in NMRI female mouse at 20 mg/kg, sc by HPLC analysis; assay type: ADME, organism-based; settings: in vivo
[22] = Apparent permeability from basolateral to apical side in human Caco-2 cells at 100 uM measured upto 120 mins by LC-MS analysis; assay type: ADME, cell-based
[23] = in vitro; settings: human, liver microsomes; remark: listed apart in the source
[24] = system: MDCK-MDR1; experiment: Cytotoxicity against MDCKII-MDR1 cells assessed as cell viability at 100 uM measured by MTT assay; assay type: toxicity, cell-based, Canis lupus familiaris; settings: dog, mdck-mdr1, 100 µM
[25] = Efflux ratio of apparent permeability from basolateral to apical side over apical to basolateral side in human Caco-2 cells at 100 uM and measured after 120 mins by LC-MS analysis; assay type: ADME, cell-based
[26] = Solubility of the compound in Dulbecco's PBS at 20 degree C measured after 24 hrs
[27] = Efflux ratio of apparent permeability from basolateral to apical side over apical to basolateral side in human Caco-2 cells at 280 uM and measured after 120 mins by LC-MS analysis; assay type: ADME, cell-based
[28] = Apparent permeability from apical to basolateral side in human Caco-2 cells at 100 uM measured upto 120 mins by LC-MS analysis; assay type: ADME, cell-based
[29] = molecular target: Voltage-gated inwardly rectifying potassium channel KCNH2 (Homo sapiens, UniProt Q12809); experiment: Inhibition of hERG expressed in HEK293 cells assessed as tail current measured after 8 mins by automated whole-cell Qpatch Clamp assay
[30] = Clearance in NMRI female mouse at 30 mg/kg, iv by HPLC analysis; assay type: ADME, organism-based; settings: in vivo
[31] = in vitro; settings: pig, liver microsomes
[32] = system: Staphylococcus aureus; experiment: Antibacterial activity against multi drug-resistant Staphylococcus aureus USA300 FPR3757 assessed as inhibition of visible growth incubated for 20 to 24 hrs by microbroth serial dilution assay; assay type: functional; settings: time 20-24 hrs, read-out: MIC100
[33] = in vitro; settings: mouse, liver microsomes; remark: listed apart in the source
[34] = Plasma protein binding in human at 5 to 15 uM incubated for 5 hrs by LC-MS analysis; assay type: ADME, cell-free; settings: dose 5-15 µM, read-out: PPB (converted)
[35] = AUC (0 to infinity) in pig urine at 3 mg/kg, iv measured upto 240 mins by LC-MS/MS analysis; assay type: ADME, organism-based, Sus scrofa; settings: in vivo, 4 h
[36] = in vitro; settings: pig, liver microsomes; remark: listed apart in the source
[37] = Elimination rate constant in NMRI female mouse at 30 mg/kg, iv by HPLC analysis; assay type: ADME, organism-based; settings: in vivo
[38] = Cmax in pig urine at 10 mg/kg, po measured upto 240 mins by LC-MS/MS analysis; assay type: ADME, organism-based, Sus scrofa
[39] = Efflux ratio of apparent permeability from basolateral to apical side over apical to basolateral side in human Caco-2 cells at 10 uM; assay type: ADME, cell-based
[40] = system: Staphylococcus aureus; experiment: Induction of resistant development in lefamulin 5 passages resistance developed Staphylococcus aureus USA300 FPR3757 assessed as fold increase in MIC at sub-MIC concentration measured after 9 passages with conjugate by serial passage assay; assay type: functional
[41] = system: Escherichia coli; experiment: Antibacterial activity against Escherichia coli assessed as inhibition of visible growth incubated for 20 to 24 hrs by microbroth serial dilution assay; assay type: functional, organism-based; settings: time 20-24 hrs
[42] = system: Staphylococcus aureus; experiment: Induction of resistant development in linezolid 5 passages resistance developed Staphylococcus aureus USA300 FPR3757 assessed as fold increase in MIC at sub-MIC concentration measured after 9 passages with conjugate by serial passage assay; assay type: functional

Chain of Cytochrome P450 3A4 (P08684 whole entry): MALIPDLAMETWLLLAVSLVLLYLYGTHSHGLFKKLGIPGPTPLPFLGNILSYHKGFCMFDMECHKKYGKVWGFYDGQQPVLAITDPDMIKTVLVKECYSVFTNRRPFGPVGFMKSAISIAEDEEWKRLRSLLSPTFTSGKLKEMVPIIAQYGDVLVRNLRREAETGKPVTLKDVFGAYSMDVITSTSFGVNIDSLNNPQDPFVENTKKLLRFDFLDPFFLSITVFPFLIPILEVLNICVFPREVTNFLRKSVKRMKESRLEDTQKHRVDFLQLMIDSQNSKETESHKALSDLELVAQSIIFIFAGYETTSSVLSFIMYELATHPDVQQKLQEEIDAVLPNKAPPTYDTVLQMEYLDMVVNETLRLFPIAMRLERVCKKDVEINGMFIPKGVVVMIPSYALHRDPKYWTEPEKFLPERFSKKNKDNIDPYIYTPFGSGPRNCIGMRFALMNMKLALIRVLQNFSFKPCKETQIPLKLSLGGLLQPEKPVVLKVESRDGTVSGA
Chain of Voltage-gated inwardly rectifying potassium channel KCNH2 (Q12809 whole entry): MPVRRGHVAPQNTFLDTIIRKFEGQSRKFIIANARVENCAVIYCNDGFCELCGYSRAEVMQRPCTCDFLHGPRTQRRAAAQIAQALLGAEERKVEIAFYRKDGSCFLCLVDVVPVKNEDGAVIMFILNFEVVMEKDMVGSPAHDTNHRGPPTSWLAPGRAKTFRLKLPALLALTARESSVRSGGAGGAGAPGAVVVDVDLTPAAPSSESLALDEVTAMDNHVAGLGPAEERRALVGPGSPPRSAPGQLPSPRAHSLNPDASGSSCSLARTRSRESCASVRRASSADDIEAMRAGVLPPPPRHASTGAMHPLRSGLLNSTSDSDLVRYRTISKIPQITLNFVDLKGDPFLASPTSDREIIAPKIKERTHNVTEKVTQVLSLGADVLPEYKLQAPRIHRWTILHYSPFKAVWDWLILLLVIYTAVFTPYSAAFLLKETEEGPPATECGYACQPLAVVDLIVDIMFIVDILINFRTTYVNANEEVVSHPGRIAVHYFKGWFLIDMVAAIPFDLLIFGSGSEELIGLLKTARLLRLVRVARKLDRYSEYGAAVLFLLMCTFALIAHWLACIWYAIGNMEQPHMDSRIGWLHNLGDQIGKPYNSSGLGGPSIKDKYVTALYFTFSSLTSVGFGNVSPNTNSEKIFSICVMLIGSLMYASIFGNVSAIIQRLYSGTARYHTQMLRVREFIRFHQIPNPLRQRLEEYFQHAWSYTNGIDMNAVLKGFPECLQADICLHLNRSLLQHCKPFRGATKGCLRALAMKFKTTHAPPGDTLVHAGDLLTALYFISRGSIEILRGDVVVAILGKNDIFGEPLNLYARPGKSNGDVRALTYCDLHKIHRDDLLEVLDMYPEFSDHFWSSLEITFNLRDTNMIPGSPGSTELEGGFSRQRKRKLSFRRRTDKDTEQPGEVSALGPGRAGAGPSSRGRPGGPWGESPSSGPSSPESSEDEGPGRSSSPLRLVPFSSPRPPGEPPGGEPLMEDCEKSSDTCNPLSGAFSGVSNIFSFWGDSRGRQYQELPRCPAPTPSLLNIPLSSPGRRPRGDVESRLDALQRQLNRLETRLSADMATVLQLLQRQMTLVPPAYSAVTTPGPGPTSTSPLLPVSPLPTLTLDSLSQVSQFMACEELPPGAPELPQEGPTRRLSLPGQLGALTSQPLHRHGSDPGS
Chain of hERG (KCNH2) (Q12809 whole entry): as above

| SMILES | MIC [3] [µg/mL] | Activity [4] [log10CFU/ml] | MIC [5] [µg/mL] | IC50 [6] [µM] | MIC [7] [µg/mL] | Activity [9] [log10CFU/ml] | Papp A→B at 2 h, 280 µM [10] [×10⁻⁶ cm/s] | Activity [11] [log10CFU/ml] | MIC [12] [µg/mL] | half-life at 0.5 h, 1 µM [13] [min] | inhibition at 8 min, 60 µM [14] [%] | IC50 [16] [nM] | inhibition (INH) [17] [%] | CLint scaled at 0.5 h, 1 µM [18] [mL/min/kg] | Papp B→A at 2 h, 280 µM [19] [×10⁻⁶ cm/s] | Papp B→A at 2 h, 100 µM [22] [×10⁻⁶ cm/s] | CLint scaled at 0.5 h, 1 µM [23] [mL/min/kg] | Activity [24] | efflux ratio at 2 h, 100 µM [25] | solubility at 24 h [26] [µM] | also measured |
| --- | --- | --- | --- | --- | --- | --- | --- | --- | --- | --- | --- | --- | --- | --- | --- | --- | --- | --- | --- | --- | --- |
| C=C[C@]1(C)C[C@@H](OC(=O)Cn2cc(-c3ccc(Cn4cnc5c(N6CCNCC6)ncnc54)nc3)nn2)[C@]2(C)[C@H](C)CC[C@]3(CCC(=O)[C@H]32)[C@@H](C)[C@@H]1O | 0.12 (≈ 0.166 µM) | 2 | 0.03 (≈ 0.0415 µM) | 47 | 0.03 (≈ 0.0415 µM) | ~3 | 2.12 | 3 | 0.12 (≈ 0.166 µM) | 3.7 | 27.4 | 410 | 99.9 | 929 | 5.34 | 23 | 1710 | Non-Toxic | 48 | 114 (≈ 82.4 µg/mL) | concentration at 4 h [1]: 866 ng/mL; half-life [2]: 124 min; half-life [8]: 75 min; Tmax [15]: 15 min; Vd [20]: 3.46 L/kg; Cmax [21]: 1180 ng/mL; efflux ratio at 2 h, 280 µM [27]: 2.5; Papp A→B at 2 h, 100 µM [28]: 0.48 ×10⁻⁶ cm/s; IC50 [29]: > 200 µM; clearance [30]: 69.8 mL/min/kg; CLint scaled at 0.5 h, 1 µM [31]: 4200 mL/min/kg; MIC [32]: 0.12 µg/mL (≈ 0.166 µM); half-life at 0.5 h, 1 µM [33]: 5.9 min; fraction unbound at 5 h, up to 15 µM [34]: 0.27; AUC [35]: 821 µg/mL/min; half-life at 0.5 h, 1 µM [36]: 1.3 min; k el [37]: 0.000218 s⁻¹; Cmax [38]: 114 ng/mL |
| C=C[C@]1(C)C[C@@H](OC(=O)CS[C@@H]2CC[C@@H](N)C[C@H]2O)[C@]2(C)[C@H](C)CC[C@]3(CCC(=O)[C@H]32)[C@@H](C)[C@@H]1O [LEFAMULIN] | 0.12 (≈ 0.236 µM) | 2 | 0.25 (≈ 0.492 µM) | 43 | 0.12 (≈ 0.236 µM) | 2.5 | 3.19 | 3 | 0.06 (≈ 0.118 µM) | 4.3 | 32.8 | 750 | 99.9 | 478 | 12.5 | 25.7 | 1460 | Non-Toxic | 40.8 | 1920 (≈ 973 µg/mL) | efflux ratio at 10 µM [39]: 68; fold change (FC) [40]: 16; efflux ratio at 2 h, 280 µM [27]: 3.9; Papp A→B at 2 h, 100 µM [28]: 0.63 ×10⁻⁶ cm/s; IC50 [29]: 126 µM; CLint scaled at 0.5 h, 1 µM [31]: 359 mL/min/kg; Activity [41]: inactive; MIC [32]: 0.12 µg/mL (≈ 0.236 µM); half-life at 0.5 h, 1 µM [33]: 11.5 min; fraction unbound at 5 h, up to 15 µM [34]: 0.34; fold change (FC) [42]: 8; half-life at 0.5 h, 1 µM [36]: 15.3 min |
